The text below walks through data of US20070202079A1, “Therapeutic compositions and methods useful in modulating protein tyrosine phosphatases” (priority 2006, published 2007).

Where only a bound is given, the exact number is not on record here.

One data set has as its system DS cells. Put plainly: DS cell growth, MTT. The format is cell-based, human. The conditions noted are these: day 3; IFN-alpha 1,000 u/ml or sodium stibogluconate by itself. As for the experimental part:
For cell proliferation assays, cells were grown in 10% FCS culture medium containing various amounts of IFNs and/or sodium stibogluconate in 96 well plates and cultured at 37° C. for 3 or 6 days as indicated. The numbers of viable cells in proliferation assays were determined by MTT assays as described in Phatak et al., J. Immunol. 167, 3391 (2001).

A further data set has as its system U251. Kind of data set: U251 cell growth, MTT. Format: cell-based, human. As to conditions: 100 μg/ml, day 6. As for the experimental part:
(§1) NIH3T3 (Yi, et al., Blood 85, 87 (1995)), WM9 (Forsberg, et al., Proc. Nat. Acad Sci. USA 90, 393 (1993)), DU145 (Mickey, et al., Cancer Res. 37, 4049 (1977)), LoVo (Drewinko, et al., Cancer Res. 36, 467 (1976)), HEY (Buick, et al., Cancer Res. 45, 3668 (1985)), U251 (Yoshida, et al., Cancer 50, 410 (1982)), A549 (Giard, et al., J. Natl. Cancer Inst. 51, 1417 (1973)) and SK-N-SH (Helson, et al., Cancer Res. 35, 2594 (1975)) cell lines have been described and were cultured in RPMI 1640 supplemented with 10% fetal calf serum (FCS). For measurement of sodium stibogluconate effects on cell growth in vitro, cells were cultured in the absence (−) or presence (+) of various amounts of sodium stibogluconate for 6 days with viable cells quantified by MTT assays (Mosmann, J. Immunol. Methods 65, 55 (1983)). Percentages of growth inhibition by sodium stibogluconate were calculated (.+−.x%).

The next data set concerns the target T1, Flag-PRL-3 (Homo sapiens, UniProt O75365).
T1 construct: expressed in transfected cells; host or cells: NIH3T3 (pBabepuro, puromycin-selected)
Put plainly: immunocomplex PTPase assay, NIH3T3 Flag-PRL-3 transfectants. Format: cell-based, mouse. The conditions noted are these: cells treated 5 min. How it is done:
Immunocomplex PTPase assays were performed to assess the effects of sodium stibogluconate on intracellular PTPases. Cells were untreated or treated with sodium stibogluconate for 5 minutes, washed with fresh medium and then lysed in cold lysis buffer (50 mM Tris, pH 7.4; 150 mM NaCl; 1% NP40; 2 mM PMSF; 20 μg/ml of Aprotinin). The lysates were incubated with an anti-Flag antibody in immunoprecipitation assays. The immunocomplexes were collected with protein G sepharose beads (Pharmacia) and washed in cold lysis buffer for 4 times. […] C. for 18 hrs. 100 μL of malachite green solution (UBI) was added to each reaction prior to measurement of OD660 to quantify the amounts of free phosphate cleaved by the PTPases from the peptide substrate (Pathak et al., J. Immunol. 167, 3391 (2001)). The remaining 10% contents of individual samples were analyzed by SDS-PAGE/Western blotting to quantify the relative amounts of the phosphatase proteins. […]
The effects of sodium stibogluconate on intracellular PTPases were assessed using NIH3T3 or WM9 transfectants. […]

The subject of a further data set is SK-N-SH. Kind of data set: SK-N-SH cell growth, MTT. Format: cell-based, human. The conditions noted are these: 100 μg/ml, day 6. As for the experimental part: as §1
For data set [1] the following is noted: standard dosage 10-20 mg/kg/day; cited from earlier work.
In the next data set the test system is Jurkat cells. Put plainly: IFN-gamma secretion by Jurkat cells, ELISA. Format: cell-based, human. As to conditions: 16 hours. How it is done:
Jurkat cells were cultured in the absence or presence of various amounts of SSG for 16 hours. The cells and culture medium supernatants were separated by centrifugation (1,000 g, 10 min). The amounts of IFN-gamma in the culture medium supernatants were quantified using an ELISA kit (R.D. system, Minneapolis, Minn.) following the manufacturer's protocol.

Another data set has as its system A549. Put plainly: A549 cell growth, MTT. The format is cell-based, human. The conditions noted are these: 100 μg/ml, day 6. How it is done: as §1
The test system of a further data set is LoVo. Put plainly: LoVo cell growth, MTT. Format: cell-based, human. As to conditions: 100 μg/ml, day 6. How it is done:
as §1

T1 sequence (O75365 whole entry): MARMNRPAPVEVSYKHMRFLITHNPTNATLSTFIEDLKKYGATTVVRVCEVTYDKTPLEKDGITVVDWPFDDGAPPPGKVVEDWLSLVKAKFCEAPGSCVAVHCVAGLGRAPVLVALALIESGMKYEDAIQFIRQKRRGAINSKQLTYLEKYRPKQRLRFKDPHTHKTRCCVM

Turning to `O.O.O.O.O.O.O.O.O.O=C([O-])[C@@H]1[O][Sb]2([O-])([O][Sb]34([OH])[O][C@H]([C@H](O)CO)[C@H]([O]3)[C@H](C(=O)[O-])[O]4)[O][C@H]([C@H](O)CO)[C@@H]1[O]2.[Na+].[Na+].[Na+]` [sodium stibogluconate], the DS cell growth result with DS cells was “modest activity”. Moreover, the “cell killing of U251” value in the data set with U251 is listed as “near-complete cell killing”. In addition, on Flag-PRL-3, the “PTPase activity of immunocomplexes from treated Flag-PRL-3 transfectants” value was “lack of PTPase activity”. The “cell killing of SK-N-SH” value in the data set with SK-N-SH is listed as “near-complete cell killing”. Besides, the serum levels in data set [1] was at least 10000 ng/mL. The IFN-gamma secretion result in the data set with Jurkat cells is given as “increased amounts of IFN-gamma”. In addition, in the data set with A549, the “cell killing of A549” value is listed as “near-complete cell killing”. Besides, in the data set with LoVo, the “cell killing of LoVo” value is “near-complete cell killing”.
